# How the values were obtained:
# [1] = system: zebra fishes (AB strain Danio rerio); assay: Whitening activity analysis in vivo (zebra fish melanin); settings: 20 mM; immersed forty-eight hours
# Source text: The test uses zebra fishes (AB strain Danio rerio), in which fish edge is above four months, as test brood fishes, and the fishes are bred in an acrylic water tank having a filter and a circulation system. Water temperature is controlled at 28.5 degrees Celsius, and light-dark cycle is respectively controlled at fourteen and ten hours.
# The medicine to be tested must be dissolved in 100% DMSO solution, and finally concentration must also concern DMSO and medicine concentration.
# Embryos that have been fertilized for nine hours is taken and injected into a 96 well culture dish, and three embryos and 100 μl Hank's buffer are disposed in each well. 100 μl taken from the prepared medicine is injected into each well, and after adequately and uniformly mixing the mixture, an orifice plate is covered to avoid draining water content away to change the concentration. […]
# Obtained fish images are opened by image processing software (Image J 1.43 g; National Institute of Health, Bethesda, Md., U.S.A.), and under ranges where the minimum threshold is set at 0, and where the maximum threshold is set at 85, melanin of each group of zebra fishes is performed with quantitative analysis.
# [2] = system: Mushroom tyrosinase; assay: Mushroom tyrosinase inhibition capability analysis; type: biochemical; settings: positive control, 100 μM
# Procedure: In a 96 well plate, 70 μl PBS, 20 μl specimen solution having different concentrations is added into each pore, and the mixture is uniformly mixed. Next, 10 μl 12U tyrosinase is added to place the plate in the cultivation chest at 37 degrees Celsius to react for thirty minutes. 10 μl 15 mM L-dopa is further added, and after continuously placing the plate in the cultivation chest to react for thirty minutes, the variance of absorbance is measured at 492 nm wavelengths. By taking H2O or 50% EtOH as the control group, the anti-oxidation rate of the object to be tested is obtained by inhibition of tyrosinase % (IT %) as the following formula. When peroxidation rate of lipid inhibition is higher, antioxidative function is stronger. Inhibition of tyrosinase %, IT %=[1−(absorbance of sample at 492 nm)/(absorbance of the control group that is not added with samples at 492 nm)]×100.
Mushroom tyrosinase inhibition capability [2],Compound,melanin content of zebra fishes [1]
,OC[C@H]1O[C@@H](Oc2ccc(O)cc2)[C@H](O)[C@@H](O)[C@@H]1O [arbutin],50%
38.0 ± 0.4%,O=C1O[C@H]([C@@H](O)CO)C(O)=C1O [vitamin C],
